The record followed here is patent US7553967B2, “1,2-Dihydroquinoline derivatives and method for using the same to treat HIV infections” (Wyeth, priority 2004, dated 2009).

In this assay the target is T1, HIV Reverse transcriptase (RT) 66/p51 (Human immunodeficiency virus type 1 group M subtype B, UniProt P04585).
T1 construct: HIV Reverse transcriptase (RT) 66/p51; purchased Worthington
Description: RNA dependent DNA polymerase (RDDP) activity of HIV RT, 33P-TTP incorporation on polyrA-oligodT12-18, filter plate. The class given is biochemical.

pIC50: −log10 of the molar value.

As to `Cc1cn([C@H]2C[C@H](N=[N+]=[N-])[C@@H](CO)O2)c(=O)[nH]c1=O` [AZT], the pIC50 is above 6.70.
